Assay results from patent US20250179167A1, “IL-6 INHIBITOR AS TREATMENT FOR NEPHROPATHY” (YALE UNIVERSITY, priority 2022, published 2025).

Columns and labels:
[1] = system: control littermates and GR^ECKO mice; experiment: Etomoxir and C75 in non-diabetic and diabetic control littermates and GR^ECKO mice; format: in vivo, mouse; settings: for level of renal fibrosis: nondiabetic control and GR^ECKO mice
Procedure: FIGS. 6A-6E show metabolic reprogramming by loss of endothelial GR loss worsens diabetic kidney disease. (FIG. 6A) Radiolabeled ^14C-palmitate uptake analysis in isolated endothelial cells from kidneys of nondiabetic and diabetic control, GR^ECKO Apoe^−/− and DKO mice. CPM of each sample were counted. Data were normalized to μg protein. Fold activity is presented. Endothelial cells isolated and cultured from six biologically independent mice/group were performed in triplicate and analyzed for ^14C-palmitate uptake analysis. Data are mean±SEM. (FIG. 6B) Radiolabeled [^14C]palmitate oxidation and [^14CO2]release were measured in isolated endothelial cells from kidneys of nondiabetic and diabetic control, GR^ECKO Apoe^−/− and DKO mice. CPM of each sample was counted. Data were normalized to μg protein. Fold activity is presented. Endothelial cells isolated and cultured from six biologically independent mice/group were performed in triplicate and analyzed for ^14C-palmitate uptake analysis. Data are mean±SEM. (FIG. 6C) Body weight, blood glucose, and kidney weight/body weight were measured at the end of these experiments. N=6 biologically independent mice from two experiments. Ex vivo radiolabeled [^14C]palmitate oxidation and [^14CO2]release were measured in kidneys. CPM of each sample was counted. Isolated endothelial cells from five biologically independent mice/group were analyzed in triplicate. Data are mean±SEM. (FIG. 6D) Masson trichrome, Sirius red and PAS staining were analyzed in the kidneys of control, etomoxir- and C75-treated diabetic mice. Representative images are shown; original magnification 300×. Relative area of fibrosis (%) and relative collagen deposition (%) were measured using the ImageJ program. N=8 biologically independent mice per/group from three independent experiments were analyzed. Scale bar 50 μm. Data are mean±SEM. (FIG. 6E) Immunohistochemical analysis of CPT1a and β-catenin. Representative images are shown; original magnification 300×. Scale bar 50 μm. N=6 biologically independent mice per group from three independent experiments. For all panels one-way ANOVA with Tukey post-test was used for analysis of statistical significance. Significance—*p<0.05, **p<0.01, ***p<0.001.
Body weight, blood glucose, and kidney/body weight ratio and fatty acid oxidation as represented by [^14CO2]release are shown. [^14C]palmitate was used as substrate and CPM counts were normalized by protein. n=6 biologically independent mice/group. Data are mean±SEM. One-way Anova with Tukey multiple comparison post hoc test was used to calculate statistical significance. Significance—*p<0.05.
Masson trichrome staining (upper panel) and Sirius red (lower panels) in etomoxir- and C75-treated non-diabetic control and GR^ECKO mice. Etomoxir (20 mg/kg) and C75 (15 mg/kg) were dosed (IP) three times per week for 3 weeks in GR^ECKO and control littermates. Representative images are shown; original magnification 400×. Area of fibrosis (%) and relative collage deposition (%) in n=6 biologically independent mice/group were combined from two independent experiments. Scale bar 50 μm. Data are mean±SEM. One-way Anova with Tukey multiple comparison post hoc test was used to calculate statistical significance. Significance-**p<0.01.
Animal Experimentation. All experiments were performed according to a protocol approved by the Institutional Animal Care and Use Committee at the Yale University School of Medicine and were in accordance with the National Institute of Health (NIH) Guidelines for the Care of Laboratory Animals Mice were housed at an ambient temperature of 68-79° F. with a humidity that ranged between 30%-70%. They were exposed to 12-h light-dark cycles Mice lacking the endothelial glucocorticoid receptor (GR) (known as GR^ECKO) and those lacking this receptor on the Apoe null background (DKO) were generated as previously described^25; these mice were on the C57BL/6 background. […]

diabetic CD-1 mice = experiment: FA modulators (fenofibrate, etomoxir, C75, simvastatin) in diabetic CD-1 mice; format: in vivo, mouse; settings: for CPT1a level / FAO, as measured by [14CO2] release / β-catenin level / fibrogenic phenotype / level of fibrosis / level of GR protein in CD31 positive cells: diabetic CD-1 mice; for fibrogenic phenotype / level of fibrosis / level of GR protein in CD31 positive cells: treated for 4 weeks; for fibronectin mRNA level / αSMA mRNA level: diabetic kidneys, CD-1 mice
Procedure: FIG. 33A-33F show endothelial GR is essential for the action of anti-dyslipidemic drugs in the diabetic kidney disease. (FIG. 33A) Masson trichrome (MTS) and Sirius red staining in kidneys of control, diabetic, fenofibrate-, etomoxir-, C75- and simvastatin-treated diabetic mice. Representative images (original magnification 300×) are shown. Relative area of fibrosis (%) and relative collagen deposition (%) were measured using the ImageJ program. n=6 biologically independent mice/group combined from two experiments were analyzed. Scale bar 50 μm. (FIG. 33B) Co-immunolabeling of GR/CD31 was analyzed by fluorescence microscopy. FITC-labeled GR, rhodamine-labeled CD31 and DAPI were used. Representative images are shown; original magnification 300×. Scale bar 50 μm. n=6 biologically independent mice/group combined from two experiments were analyzed. (FIG. 33C) PCR gene analiof fibronectin and α-SMA in the kidneys. 18S was used as an internal control. n=6 biologically independent mice/group. (FIG. 33D) Blood glucose measurements in control, diabetic, fenofibrate-, etomoxir-, C75- and simvastatin-treated diabetic mice. n=6 biologically independent mice/group. (FIG. 33E) Radiolabeled [^14C]palmitate oxidation and [^14CO2]release were measured. CPM of each sample was counted. Endothelial cells isolated from six biologically independent mice were evaluated. Three independent experiments were analyzed. Data are mean±SEM (FIG. 33F) Immunohistochemical analysis of CPT1a and β-catenin was analyzed in the kidneys of control, diabetic, fenofibrate-, C75-, etomoxir- and simvastatin-treated diabetic mice. n=6 biologically independent mice/group. Representative images are shown; original magnification 400×. Scale bar 50 μm. Data are mean SEM. In all panels, one-way Anova with Tukey multiple comparison post hoc test was used to calculate statistical significance. Significance—*p<0.05, **p<0.01, ***p<0.001. Con: control, DM: diabetic, feno: fenofibrate.
A single IP dose of 200 mg/kg STZ was used to induce diabetes in CD-1 mice.
In one experiment, male mice were randomized to one of 4 groups sixteen weeks after induction of diabetes: (i) untreated, (ii) fenofibrate (100 mg/kg), (iii) simvastatin (40 mg/kg), or (iv) Wnt inhibitor (LGK974; 5 mg/kg). In each case, mice were treated for 4 weeks and compared to untreated diabetic CD-1 mice. In another experiment, male diabetic CD-1 mice were randomized into one of 3 groups: (i) untreated (vehicle), (ii) etomoxir (20 mg/kg) or (iii) C75 (15 mg/kg); in each case mice were treated (IP) three times/week for a total 4 weeks.
Morphological Evaluation. A point-counting method was utilized to evaluate the relative area of the mesangial matrix. The inventors analyzed PAS-stained glomeruli from each mouse using a digital microscope screen grid containing 540 (27×20) points. Masson's trichrome-stained images were evaluated by ImageJ software, and the fibrotic areas were estimated.
Sirius red staining. Deparaffinized sections were incubated with picrosirius red solution for 1 hour at room temperature. The slides were washed twice with acetic acid solution for 30 seconds per wash. The slides were then dehydrated in absolute alcohol three times, cleared in xylene, and mounted with a synthetic resin. Sirius red staining was analyzed using ImageJ software, and fibrotic areas were quantified.
Immunohistochemistry. Paraffin-embedded kidney sections (5 μm thick) were deparaffinized and rehydrated (2 min in xylene, four times; 1 min in 100% ethanol, twice; 1 min in 95% ethanol; 45 s in 70% ethanol; and 1 min in distilled water), and the antigen was retrieved in a 10 mM citrate buffer pH 6 at 98° C. for 60 min. To block the endogenous peroxidase, all sections were incubated in 0.3% hydrogen peroxide for 10 min. The immunohistochemistry was performed using a Vectastain ABC Kit (Vector Laboratories, Burlingame, CA). Mouse anti-β-catenin antibody (1:100) and CPT1a (Abnova; H00001374-DO1P; 1:100) antibodies were used. […]

[2] = kidney ECs from diabetic GR^ECKO mice
[3] = kidney ECs, non-diabetic control littermates
[4] = kidneys of diabetic GR^ECKO mice
[5] = kidneys of diabetic control mice

| Structure (SMILES) | expression of CPT1a (immunohistochemical analysis, FIG. 6E) ([1]; diabetic GR^ECKO mice) | expression of β-catenin (immunohistochemical analysis, FIG. 6E) ([1]; diabetic GR^ECKO mice) | expression of CPT1a (immunohistochemical analysis, FIG. 6E) ([1]; diabetic control mice) | expression of β-catenin (immunohistochemical analysis, FIG. 6E) ([1]; diabetic control mice) | FAO [1, 2] | FAO [1, 3] | CPT1a level [1, 4] | level of β-catenin [1, 4] | renal fibrogenic phenotype [1, 4] | CPT1a level [1, 5] | level of β-catenin [1, 5] | renal fibrogenic phenotype [1, 5] | level of renal fibrosis [1] | CPT1a level (diabetic CD-1 mice) | FAO, as measured by [14CO2] release (diabetic CD-1 mice) | β-catenin level (diabetic CD-1 mice) | fibrogenic phenotype / level of fibrosis (diabetic CD-1 mice) | level of GR protein in CD31 positive cells (diabetic CD-1 mice) | fibronectin mRNA level (diabetic CD-1 mice) | αSMA mRNA level (diabetic CD-1 mice) |
| --- | --- | --- | --- | --- | --- | --- | --- | --- | --- | --- | --- | --- | --- | --- | --- | --- | --- | --- | --- | --- |
| CCOC(=O)[C@@]1(CCCCCCOc2ccc(Cl)cc2)CO1 [etomoxir] | A similar pattern was observed | A similar pattern was observed | decreased expression of CPT1a | increasing expression of β-catenin | significant suppression of FAO | significant suppression of FAO | suppressed the CPT1a level | increased the expression level of β-catenin | accelerated the renal fibrogenic phenotype | suppressed the CPT1a level | increased the expression level of β-catenin | accelerated the renal fibrogenic phenotype | slightly increased the level of renal fibrosis | significant suppression | significant suppression | induced the expression of β-catenin | exacerbated the fibrosis | suppressed it | upregulated | upregulated |
| C=C1C(=O)OC(CCCCCCCC)C1C(=O)O (stereo not shown) [C75] | A similar pattern was observed | A similar pattern was observed | substantially reverse | substantially reverse | unable to rescue | restored FAO | also observed in the GR^ECKO mice, though to a lesser extent | also observed in the GR^ECKO mice, though to a lesser extent | also observed in the GR^ECKO mice, though to a lesser extent | restored CPT1a | completely diminished the level of β-catenin | clearly abolished the renal fibrogenic phenotype | mitigated | increased the expression of CPT1a | increased the level of FAO | suppressed the level of β-catenin | ameliorated the fibrogenic phenotype | restored | downregulated | downregulated |
